Columns and labels:
[1] = system: T-Rex 293 cell line SC3 cells lacking increased expression of androgen receptor protein; experiment: Cellular growth inhibition, T-Rex 293 SC3 cells without doxycycline, CellTiter-Glo; assay type: cell-based; settings: 72 h, T-Rex 293 SC3 cells not exposed to doxycycline, CellTiter-Glo 2.0
Outline: (§1)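 Growth inhibition was compared in a T-Rex 293 clone with and without doxycycline (10 ng/mL)-driven androgen receptor overexpression. Compounds were applied for 72 h in hormone-depleted serum, and GI50 came from four-parameter curves of CellTiter-Glo signal.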

VCaP cells = experiment: Cellular growth inhibition assay for VCaP cells, CellTiter-Glo; assay type: cell-based, human; settings: Homo sapiens, VCaP, 72 h, 72 hours treatment, CellTiter-Glo 2.0
Outline: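 GI50 values come from four-parameter curve fits of luminescence data normalized to a zero baseline. Compound, in medium with 0.5% DMSO, was added one day after plating and left for 72 h before CellTiter-Glo 2.0 addition.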

T47D cells = experiment: Cellular growth inhibition assay for T47D cells, CellTiter-Glo; assay type: cell-based, human; settings: Homo sapiens, T47D, 72 h, 72 hours treatment, CellTiter-Glo 2.0 cell viability
Outline: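 Luminescence from CellTiter-Glo 2.0 after 72 h of compound exposure gives the viability signal. Cells grew in insulin-supplemented (0.2 units/mL) DMEM with 10% FBS and were treated one day after seeding at 0.5% DMSO. GI50 values come from four-parameter nonlinear regression.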

[2] = system: T-Rex 293 cell line SC3 cells having increased expression of androgen receptor protein due to exposure to doxycycline; experiment: Cellular growth inhibition, T-Rex 293 SC3 cells with doxycycline (androgen receptor induced), CellTiter-Glo; assay type: cell-based; settings: 72 h, T-Rex 293 SC3 cells with 10 ng/mL doxycycline (increased androgen receptor expression)
Outline: as §1

| SMILES | GI50 [1] [nM] | GI50 (VCaP cells) [nM] | GI50 (T47D cells) [nM] | GI50 [2] [nM] |
| --- | --- | --- | --- | --- |
| Cc1sc2c(c1C)C(c1ccc(C(F)(F)N3CC4(CCN(c5ncc(C(=O)N[C@H]6C(C)(C)[C@H](Oc7ccc(C#N)c(Cl)c7)C6(C)C)cn5)CC4)C3)cc1)=N[C@@H](Cc1ncco1)c1nnc(C)n1-2 [Compound I-504] | > 3000 | < 500 | < 500 | < 500 |
| Cc1sc2c(c1C)C(c1ccc(N3CC(CC4CN(c5ncc(C(=O)N[C@H]6C(C)(C)[C@H](Oc7ccc(C#N)c(Cl)c7)C6(C)C)cn5)C4)C3)cc1)=N[C@@H](C)c1nnc(C)n1-2 [Compound I-514] | > 3000 | > 3000 | 500 to 1500 | < 500 |
| Cc1sc2c(c1C)C(c1ccc(C3(C4CC5(CCN(c6ncc(C(=O)N[C@H]7C(C)(C)[C@H](Oc8ccc(C#N)c(Cl)c8)C7(C)C)cn6)CC5)C4)CC3)cc1)=N[C@@H](Cc1ncco1)c1nnc(C)n1-2 [Compound I-525] | > 3000 | < 500 | < 500 | < 500 |
| Cc1sc2c(c1C)C(c1ccc(CC3CC4(CCN(c5cnc(C(=O)N[C@H]6C(C)(C)[C@H](Oc7ccc(C#N)c(Cl)c7)C6(C)C)cn5)CC4)C3)cc1)=N[C@@H](Cc1ncco1)c1nnc(C)n1-2 [Compound I-547] | < 500 | > 3000 | < 500 | < 500 |
| Cc1sc2c(c1C)C(c1ccc(CC3CC4(CCN(c5ccc(C(=O)N[C@H]6C(C)(C)[C@H](Oc7ccc(C#N)c(Cl)c7)C6(C)C)cn5)CC4)C3)cc1)=N[C@@H](Cc1ncco1)c1nnc(C)n1-2 [Compound I-548] | < 500 | 500 to 1500 | < 500 | < 500 |
| Cc1sc2c(c1C)C(c1ccc(OC3CC4(C3)CC3(CCN(c5ccc(C(=O)N[C@H]6C(C)(C)[C@H](Oc7ccc(C#N)c(Cl)c7)C6(C)C)cn5)CC3)C4)cc1)=N[C@@H](C)c1nnc(C)n1-2 [Compound I-550] | > 3000 | < 500 | < 500 | < 500 |
| Cc1sc2c(c1C)C(c1ccc(CC3CCN(c4ncc(C(=O)N[C@H]5C(C)(C)[C@H](Oc6ccc(C#N)c(Cl)c6)C5(C)C)cn4)CC3)cc1)=NC1(CC1)c1nnc(C)n1-2 [Compound I-555] | 500 to 1500 | < 500 | > 3000 | < 500 |
| Cc1sc2c(c1C)C(c1ccc(CC3CCN(c4ncc(C(=O)N[C@H]5C(C)(C)[C@H](Oc6ccc(C#N)c(Cl)c6)C5(C)C)cn4)CC3)cc1)=N[C@@H](C)c1nnc(C)n1-2 [Compound I-557] | < 500 | < 500 | > 3000 | < 500 |
| COC[C@@H]1N=C(c2ccc(OC3CC4(CCN(c5ncc(C(=O)N[C@H]6C(C)(C)[C@H](Oc7ccc(C#N)c(Cl)c7)C6(C)C)cn5)CC4)C3)cc2)c2c(sc(C)c2C)-n2c(C)nnc21 [Compound I-565] | > 3000 | < 500 | 1500 to 3000 | < 500 |
| COCC[C@@H]1N=C(c2ccc(OC3CC4(CCN(c5ncc(C(=O)N[C@H]6C(C)(C)[C@H](Oc7ccc(C#N)c(Cl)c7)C6(C)C)cn5)CC4)C3)cc2)c2c(sc(C)c2C)-n2c(C)nnc21 [Compound I-566] | > 3000 | < 500 | > 3000 | < 500 |
| COC[C@@H]1N=C(c2ccc(OC3CC4(CCCN(c5ncc(C(=O)N[C@H]6C(C)(C)[C@@H](Oc7ccc(C#N)c(Cl)c7)C6(C)C)cn5)C4)C3)cc2)c2c(sc(C)c2C)-n2c(C)nnc21 [Compound I-567] | > 3000 | < 500 | > 3000 | < 500 |
| COC[C@@H]1N=C(c2ccc(OC3CC4(CCCN(c5ncc(C(=O)N[C@H]6C(C)(C)[C@H](Oc7ccc(C#N)c(Cl)c7)C6(C)C)cn5)C4)C3)cc2)c2c(sc(C)c2C)-n2c(C)nnc21 [Compound I-568] | > 3000 | < 500 | < 500 | < 500 |

Reference: patent publication US20260062422A1 (Halda Therapeutics OpCo, Inc., priority 2022, published 2026)
